# Data reported in patent US20060194837A1, “Tetrahydroisoquinoline compounds” (priority 2004, published 2006).
# Like-named read-outs stand apart in the source and are kept apart here.
# Key:
# [1] = target: T1, Rat SERT (Rattus norvegicus, UniProt P31652); experiment: Rat brain SERT binding ([3H]-citalopram displacement); conditions: rat brain membranes without cerebellum, 0.6 nM [3H]-citalopram, 60 min at 25° C.
# T1 construct: A rat brain without cerebellum (Zivic Laboratories, Inc.—Pittsburgh, Pa.) was homogenized; tissue Zivic Laboratories, Inc; host or cells: rat brain without cerebellum, membranes
# Protocol: The supernatant was removed and re-centrifuged at 15,000 rpm for 30 min. […] Membranes were incubated with 0.6 nM [^3H]-Citalopram plus/minus test compounds for 60 min at 25° C. and harvested by rapid filtration over GF/C glass fiber filters (pretreated with 0.3% polyethylenimine) followed by four washes with ice-cold buffer.
# [2] = target: T2, human SERT (Homo sapiens, UniProt P31645); experiment: Human SERT binding (3H-citalopram displacement); conditions: HEK293 membranes expressing human SERT, rt 1 h
# T2 construct: expressed in transfected cells; host or cells: HEK293 membranes
# Protocol: Homogenized HEK293 (Human Embryonic Kidney) membranes expressing the human SERT were incubated with ^3H-citalopram (SERT) at rt for 1 h in 50 mM Tris, 120 mM NaCl, 5 mM KCl (pH 7.4). […] The membranes were washed and the radioactivity was counted as above.
# [3] = target: T3, human H3 receptor (Homo sapiens, UniProt Q9Y5N1); experiment: H3 receptor binding (N-[3H]-α-methylhistamine displacement); conditions: membranes of SK-N-MC cells expressing cloned human H3 receptor, 0.8 nM N-[3H]-α-methylhistamine, 60 min at 25° C.
# T3 construct: expressed in transfected cells
# T3 sequence (Q9Y5N1 whole entry): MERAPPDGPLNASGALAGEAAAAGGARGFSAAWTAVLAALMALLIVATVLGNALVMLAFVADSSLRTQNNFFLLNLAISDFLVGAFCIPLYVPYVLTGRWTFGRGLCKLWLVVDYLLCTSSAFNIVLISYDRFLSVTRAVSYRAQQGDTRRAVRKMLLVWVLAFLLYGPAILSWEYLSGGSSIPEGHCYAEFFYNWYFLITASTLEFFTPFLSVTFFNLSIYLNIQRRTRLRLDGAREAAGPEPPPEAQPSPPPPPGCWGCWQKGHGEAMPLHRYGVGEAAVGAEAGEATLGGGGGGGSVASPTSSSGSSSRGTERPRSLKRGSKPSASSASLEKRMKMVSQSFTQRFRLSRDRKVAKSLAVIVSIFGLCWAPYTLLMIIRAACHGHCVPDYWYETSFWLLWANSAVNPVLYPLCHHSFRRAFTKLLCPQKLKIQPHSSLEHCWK
# T1 sequence (P31652 whole entry): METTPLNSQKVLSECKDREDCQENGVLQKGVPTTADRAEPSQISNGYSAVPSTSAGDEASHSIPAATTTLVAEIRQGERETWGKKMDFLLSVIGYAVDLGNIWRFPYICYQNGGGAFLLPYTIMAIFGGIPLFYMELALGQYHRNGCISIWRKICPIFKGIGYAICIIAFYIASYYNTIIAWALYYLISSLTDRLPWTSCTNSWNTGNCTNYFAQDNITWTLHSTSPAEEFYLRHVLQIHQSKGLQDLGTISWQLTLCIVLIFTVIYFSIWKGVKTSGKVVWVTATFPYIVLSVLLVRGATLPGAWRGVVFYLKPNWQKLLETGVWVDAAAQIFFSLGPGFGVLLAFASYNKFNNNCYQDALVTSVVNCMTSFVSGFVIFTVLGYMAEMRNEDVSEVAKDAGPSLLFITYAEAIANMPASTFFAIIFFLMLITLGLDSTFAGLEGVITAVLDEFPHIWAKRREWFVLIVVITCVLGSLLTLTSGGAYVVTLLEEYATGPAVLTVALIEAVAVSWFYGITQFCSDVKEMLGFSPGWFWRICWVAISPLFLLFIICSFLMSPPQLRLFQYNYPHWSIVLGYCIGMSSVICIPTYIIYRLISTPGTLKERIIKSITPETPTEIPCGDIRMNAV
# T2 sequence (P31645 whole entry): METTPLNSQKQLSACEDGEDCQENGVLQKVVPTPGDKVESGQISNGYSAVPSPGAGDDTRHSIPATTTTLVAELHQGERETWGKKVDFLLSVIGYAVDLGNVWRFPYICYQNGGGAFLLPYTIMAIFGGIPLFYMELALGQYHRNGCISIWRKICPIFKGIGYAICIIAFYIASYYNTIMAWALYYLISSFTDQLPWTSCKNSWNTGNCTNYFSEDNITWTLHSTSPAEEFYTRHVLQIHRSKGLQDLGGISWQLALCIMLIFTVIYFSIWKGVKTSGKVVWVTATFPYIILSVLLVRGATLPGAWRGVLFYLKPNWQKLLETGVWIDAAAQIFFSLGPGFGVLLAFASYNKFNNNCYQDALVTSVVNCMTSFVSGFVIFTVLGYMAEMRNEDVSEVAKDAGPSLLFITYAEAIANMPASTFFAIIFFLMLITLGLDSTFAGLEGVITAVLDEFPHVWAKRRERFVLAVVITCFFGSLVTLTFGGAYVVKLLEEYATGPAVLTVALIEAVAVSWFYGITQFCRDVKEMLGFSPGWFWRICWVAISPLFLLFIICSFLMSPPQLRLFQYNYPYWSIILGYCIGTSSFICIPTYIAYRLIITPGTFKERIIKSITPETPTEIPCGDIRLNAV
Compound,Ki ([1]; read-out: Rat SERT Ki),Ki [2],Ki [3],Ki ([1]; Rat SERT Ki (nM))
"CCCN1CCC(COc2ccc3c(c2)CN(C)CC3c2ccc(SC)cc2)CC1 (stereo not shown) [Example 109, 2-Methyl-4-(4-methylsulfanyl-phenyl)-7-(1-propyl-piperidin-4-ylmethoxy)-1,2,3,4-tetrahydro-isoquinoline]",10 nM,3 nM,8 nM,
"CSc1ccc(C2CN(C)Cc3cc(OCCCN4CCC(F)CC4)ccc32)cc1 (stereo not shown) [Example 52, 7-[3-(4-Fluoro-piperidin-1-yl)-propoxy]-2-methyl-4-(4-methylsulfanyl-phenyl)-1,2,3,4-tetrahydro-isoquinoline]",3 nM,2 nM,,
"CSc1ccc(C2CN(C)Cc3cc(OCCCN4CCC(F)CC4)ccc32)cc1 (single isomer, unassigned) [Example 153, 7-[3-(4-Fluoro-piperidin-1-yl)-propoxy]-2-methyl-4-(4-methylsulfanyl-phenyl)-1,2,3,4-tetrahydro-isoquinoline]",,2 nM,,2 nM
"COc1ccc(C2CN(C)Cc3cc(OCCCN4CCC(F)CC4)ccc32)cc1Cl (stereo not shown) [Example 53, 4-(3-Chloro-4-methoxy-phenyl)-7-[3-(4-fluoro-piperidin-1-yl)-propoxy]-2-methyl-1,2,3,4-tetrahydro-isoquinoline]",5 nM,4 nM,,
"COc1cccc(C2CN(C)Cc3cc(OCC4CCNCC4)ccc32)c1 (stereo not shown) [Example 241, 4-(3-Methoxy-phenyl)-2-methyl-7-(piperidin-4-ylmethoxy)-1,2,3,4-tetrahydro-isoquinoline]",,10 nM,39 nM,
"CSc1ccc(C2CN(C)Cc3cc(OCCCN4CCC(F)CC4)ccc32)cc1 (single isomer, unassigned) [Example 154, 7-[3-(4-Fluoro-piperidin-1-yl)-propoxy]-2-methyl-4-(4-methylsulfanyl-phenyl)-1,2,3,4-tetrahydro-isoquinoline]",,4 nM,,5 nM
"CN1Cc2cc(OCCCN3CCC(F)CC3)ccc2C(c2ccc(S(C)(=O)=O)cc2)C1 (stereo not shown) [Example 51, 7-[3-(4-Fluoro-piperidin-1-yl)-propoxy]-4-(4-methanesulfonyl-phenyl)-2-methyl-1,2,3,4-tetrahydro-isoquinoline]",34 nM,103 nM,,
"CCCN1CCC(COc2ccc3c(c2)CN(C)CC3c2cccc(OC)c2)CC1 (stereo not shown) [Example 93, 4-(3-Methoxy-phenyl)-2-methyl-7-(1-propyl-piperidin-4-ylmethoxy) 1,2,3,4-tetrahydro-isoquinoline]",22 nM,,6 nM,
"CSc1ccc(C2CN(C)Cc3c2ccc(OCCCN2CCOCC2)c3C)cc1 (stereo not shown) [Example 172, 2,8-Dimethyl-4-(4-methylsulfanyl-phenyl)-7-(3-morpholin-4-yl-propoxy)-1,2,3,4-tetrahydro-isoquinoline]",14 nM,,89 nM,
"COc1ccc(C2CN(C)Cc3cc(OCCCN(C4CC4)C4CCN(C)CC4)ccc32)cc1 (stereo not shown) [Example 224, Cyclopropyl-{3-[4-(4-methoxy-phenyl)-2-methyl-1,2,3,4-tetrahydro-isoquinolin-7-yloxy]-propyl}-(1-methyl-piperidin-4-yl)-amine]",32 nM,,61 nM,
"CN1Cc2cc(OCCCN3CCOCC3)ccc2C(c2ccc(SC(F)(F)F)cc2)C1 (stereo not shown) [Example 218, 2-Methyl-7-(3-morpholin-4-yl-propoxy)-4-(4-trifluoromethylsulfanyl-phenyl)-1,2,3,4-tetrahydro-isoquinoline]",36 nM,,38 nM,
"COc1ccc(C2CN(C)Cc3cc(OCCCN4CCN(c5ccc(C(F)(F)F)cc5)CC4)ccc32)cc1 (stereo not shown) [Example 205, 4-(4-Methoxy-phenyl)-2-methyl-7-{3-[4-(4-trifluoromethyl-phenyl)-piperazin-1-yl]-propoxy}-1,2,3,4-tetrahydro-isoquinoline]",44 nM,,2000 nM,
"CN1Cc2cc(OCCCN3CCC(F)CC3)ccc2C(c2ccc(Sc3ncccn3)nc2)C1 (stereo not shown) [Example 196, 7-[3-(4-Fluoro-piperidin-1-yl)-propoxy]-2-methyl-4-[6-(pyrimidin-2-ylsulfanyl)-pyridin-3-yl]-1,2,3,4-tetrahydro-isoquinoline]",2000 nM,,4 nM,
"COc1ccc(C2CN(C)Cc3cc(OCCCN4CCC(F)CC4)ccc32)cc1F (single isomer, unassigned) [Example 143, 4-(3-Fluoro-4-methoxy-phenyl)-7-[3-(4-fluoro-piperidin-1-yl)-propoxy]-2-methyl-1,2,3,4-tetrahydro-isoquinoline]",18 nM,,4 nM,
"CSc1ccc(C2CN(C)Cc3cc(OC4CCN(CC#N)CC4)ccc32)cc1 (stereo not shown) [Example 245, {4-[2-Methyl-4-(4-methylsulfanyl-phenyl)-1,2,3,4-tetrahydro-isoquinolin-7-yloxy]-piperidin-1-yl}-acetonitrile]",7 nM,,336 nM,
"COc1ccc(C2CN(C)Cc3cc(OCCCN4CCN(c5ccc(C#N)cc5)CC4)ccc32)cc1 (stereo not shown) [Example 208, 4-(4-{3-[4-(4-Methoxy-phenyl)-2-methyl-1,2,3,4-tetrahydro-isoquinolin-7-yloxy]-propyl}-piperazin-1-yl)-benzonitrile]",4 nM,,137 nM,
"CN1Cc2cc(OCCCN3CCC(F)CC3)ccc2C(c2ccc(Cl)cc2Cl)C1 (stereo not shown) [Example 54, 4-(2,4-Dichloro-phenyl)-7-[3-(4-fluoro-piperidin-1-yl)-propoxy]-2-methyl-1,2,3,4-tetrahydro-isoquinoline]",,,16 nM,32 nM

# Further lines, with some results ahead:
Ki ([1]; read-out: Rat SERT Ki),Ki [2],Ki [3],Compound,Ki ([1]; Rat SERT Ki (nM))
6 nM,9 nM,,"COc1ccc(C2CN(C)Cc3cc(OCCCN4CCC(F)CC4)ccc32)cc1 (single isomer, unassigned) [Example 1A, 7-[3-(4-Fluoro-piperidin-1-yl)-propoxy]-4-(4-methoxy-phenyl)-2-methyl-1,2,3,4-tetrahydro-isoquinoline]",
2 nM,3 nM,,"COc1ccc(C2CN(C)Cc3cc(OCCCN4CCC(F)CC4)ccc32)cc1 (racemic) [Example 1, 7-[3-(4-Fluoro-piperidin-1-yl)-propoxy]-4-(4-methoxy-phenyl)-2-methyl-1,2,3,4-tetrahydro-isoquinoline]",
14 nM,8 nM,,"COc1ccc(C2CN(C)Cc3cc(OCCCN4CCCC(F)(F)C4)ccc32)cc1 (racemic) [Example 29, 7-[3-(3,3-Difluoro-piperidin-1-yl)-propoxy]-4-(4-methoxy-phenyl)-2-methyl-1,2,3,4-tetrahydro-isoquinoline]",
,13 nM,,"COc1ccc(C2CN(C)Cc3cc(OCCCN4CCCC(F)(F)C4)ccc32)cc1 (single isomer, unassigned) [Example 29A, 7-[3-(3,3-Difluoro-piperidin-1-yl)-propoxy]-4-(4-methoxy-phenyl)-2-methyl-1,2,3,4-tetrahydro-isoquinoline]",
2 nM,3 nM,,"COc1ccc(C2CN(C)Cc3cc(OCCCN4CCC(F)CC4)ccc32)cc1 (single isomer, unassigned) [Example 1B, 7-[3-(4-Fluoro-piperidin-1-yl)-propoxy]-4-(4-methoxy-phenyl)-2-methyl-1,2,3,4-tetrahydro-isoquinoline]",
8 nM,6 nM,,"COc1ccc(C2CN(C)Cc3cc(OCCCN4CCCC(F)(F)C4)ccc32)cc1 (single isomer, unassigned) [Example 29B, 7-[3-(3,3-Difluoro-piperidin-1-yl)-propoxy]-4-(4-methoxy-phenyl)-2-methyl-1,2,3,4-tetrahydro-isoquinoline]",
11 nM,4 nM,,"COc1ccc(C2CN(C)Cc3cc(OCCCN4CCC4)ccc32)cc1 (stereo not shown) [Example 34, 7-(3-Azetidin-1-yl-propoxy)-4-(4-methoxy-phenyl)-2-methyl-1,2,3,4-tetrahydro-isoquinoline]",
4 nM,,2 nM,"CCN1CCC(COc2ccc3c(c2)CN(C)CC3c2ccc(OC)cc2)CC1 (stereo not shown) [Example 87, 7-(1-Ethyl-piperidin-4-ylmethoxy)-4-(4-methoxy-phenyl)-2-methyl-1,2,3,4-tetrahydro-isoquinoline]",
1 nM,,6 nM,"COc1ccc(C2CN(C)Cc3cc(OCCCN4CCOC[C@@H]4CO)ccc32)cc1 (mixture of isomers) [Example 183A, (4-{3-[4-(4-Methoxy-phenyl)-2-methyl-1,2,3,4-tetrahydro-isoquinolin-7-yloxy)-propyl}-morpholin-3S-yl)-methanol]",
27 nM,,823 nM,"COc1ccc(C2CN(C)Cc3cc(OCCCN4CCN(C(=O)OC(C)(C)C)CC4)ccc32)cc1 (stereo not shown) [Example 211, 4-{3-[4-(4-Methoxy-phenyl)-2-methyl-1,2,3,4-tetrahydro-isoquinolin-7-yloxy]-propyl}-piperazine-1-carboxylic acid tert-butyl ester]",
29 nM,,38 nM,"COc1ccc(C2CN(C)Cc3cc(OCCCN4CCC(C(F)(F)F)CC4)ccc32)cc1 (stereo not shown) [Example 38, 4-(4-Methoxy-phenyl)-2-methyl-7-[3-(4-trifluoromethyl-piperidin-1-yl)-propoxy]-1,2,3,4-tetrahydro-isoquinoline]",
12 nM,,176 nM,"COCCN1CCN(CCCOc2ccc3c(c2)CN(C)CC3c2ccc(OC)cc2)CC1 (stereo not shown) [Example 209, 7-{3-[4-(2-Methoxy-ethyl)-piperazin-1-yl]-propoxy}-4-(4-methoxy-phenyl)-2-methyl-1,2,3,4-tetrahydro-isoquinoline]",
